{"source": "PubChem BioAssay (NCI)", "note": "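The compound was tested at five concentrations on cells cultured in 96-well plates, with a 48-hour exposure period. Here, GI50 denotes the concentration required for 50% inhibition of growth. The concentration for full growth arrest is given as TGI.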"}
{"tested_on": "SK-MEL-5 melanoma", "experiment": "DTP human tumour cell line panel, 48 h", "units": {"GI50": "µM", "TGI": "µM"}}
{"smiles": "OCC(O)CC[CH2][Sn]([Br])([c]1ccccc1)[c]1ccccc1", "note": "(stereo not drawn)", "GI50": "> 100", "TGI": "> 100"}
{"smiles": "CCc1ccc(/C=C\\c2cc(OC)c(OC)c(OC)c2)cc1", "TGI": 0.464}
{"smiles": "O=c1c2cc([N+](=O)[O-])ccc2sc2ccsc12", "TGI": "> 100"}
{"smiles": "COc1ccc(C2=CC3CCC2C3)cc1", "note": "(stereo not drawn)", "TGI": "> 100"}
{"smiles": "COc1ccc(/C=C/CN(C)CCc2ccccc2)cc1OC", "TGI": "> 100"}
{"smiles": "C=C1C(=O)O[C@H]2[C@H]1CC/C(Cn1cc(-c3ccc(OC)cc3)nn1)=C\\CC[C@@]1(C)O[C@@H]21", "GI50": 2.1, "TGI": 4.69}
{"smiles": "[Cl-].[Dy+3].[O-]/N=C(\\c1ccccc1)c1ccccn1.[O-]/N=C(\\c1ccccc1)c1ccccn1.[O-]/N=C(\\c1ccccc1)c1ccccn1", "GI50": 23.7, "TGI": 61.7}
{"smiles": "CC(=O)OCCN1c2ccccc2Sc2cnccc21", "TGI": "> 10"}
{"smiles": "CC(C)(CC(=O)Nc1ccccc1)C(=O)O", "TGI": "> 100"}
{"smiles": "COc1ccc(/C(COc2c(-c3ccccc3)oc3ccccc3c2=O)=N\\O)cc1", "GI50": 9.61, "TGI": 20.1}
{"smiles": "NC(=O)C(=O)N/N=C(\\CC1(O)C(=O)Nc2ccccc21)c1ccc2ccccc2c1", "note": "(stereo not drawn)", "TGI": "> 100"}
{"smiles": "COC(=O)/C(=N/NC(=O)C[N+](C)(C)C)C(C(=O)OC)C(=O)C(=O)Nc1ccc(F)cc1", "note": "(stereo not drawn)", "TGI": "> 100"}
{"smiles": "O=C(c1ccccc1)c1nnc(C(=O)c2ccccc2)nn1", "TGI": "> 344"}
{"smiles": "Brc1cccc(C=NC23CC4CC(CC(C4)C2)C3)c1", "TGI": "> 100"}
{"smiles": "CC(C)c1nc(CN(C)C(=O)N[C@H](C(=O)N[C@@H](Cc2ccccc2)C[C@H](O)[C@H](Cc2ccccc2)NC(=O)OCc2cncs2)C(C)C)cs1", "GI50": 17.1, "TGI": 33.5}
{"smiles": "CCC[CH2][Sn]([CH2]CCC)([O]C(=O)c1cccnc1SC)[O]C(=O)c1cccnc1SC", "GI50": 1.27, "TGI": 2.56}
{"smiles": "O=C1O[C@@H](c2ccc3c(c2)OCO3)C2C(=O)O[C@@H](c3ccc4c(c3)OCO4)C12", "note": "(stereo partly drawn)", "TGI": "> 100"}
{"smiles": "O=C1CCC(=O)N2CCCCN12", "TGI": "> 100"}
{"smiles": "CC(C)C(=O)NC(=S)Nc1ccc([N+](=O)[O-])cc1C#N", "TGI": "> 100"}
{"smiles": "C/C(CC(=O)Nc1cc(Cl)c(Cl)cc1Cl)=N\\NC(N)=O", "TGI": "> 100"}
{"smiles": "N#Cc1cc([N+](=O)[O-])ccc1NC(=O)C(=O)Nc1n[nH]c(N)n1", "TGI": "> 100"}
{"smiles": "O=C(/C=C/c1c(O)ccc2ccccc12)c1cccc(O)c1", "TGI": "> 100"}
{"smiles": "CC1=NN(C(=O)Nc2ccccc2)C(=O)C2CCC(=O)N12", "note": "(stereo not drawn)", "TGI": "> 100"}
{"smiles": "COC(=O)C1Cc2c(n(Cc3ccccc3)c3ccccc23)C(CCC(=O)O)N1C(C)C", "note": "(stereo not drawn)", "TGI": "> 100"}
{"smiles": "O=C(O)CNS(=O)(=O)c1ccc(NCc2ccccc2)cc1", "TGI": "> 100"}
{"smiles": "CCC[CH2][Sn]1([CH2]CCC)[O]Cc2nc(C)ccc2[O]1", "GI50": 13, "TGI": 25.9}
{"smiles": "O=c1/c(=C/c2ccco2)sc2nc3ccccc3n12", "GI50": "> 100", "TGI": "> 100"}
{"smiles": "O=C1CCC2(c3ccc(F)cc3)Nc3cc(Cl)ccc3N12", "note": "(stereo not drawn)", "TGI": "> 100"}
{"smiles": "C/C(CC(=O)Nc1ccc(C)cc1C)=N/N=C(N)N", "TGI": "> 100"}
{"tested_on": "NCI-H226 lung", "experiment": "DTP human tumour cell line panel, 48 h", "units": {"GI50": "µM", "TGI": "µM"}}
{"smiles": "CN1CCN(C(=O)OCc2nc3c(N4CCOCC4)nc(Cl)nc3n2C)CC1", "GI50": 1.96, "TGI": 5.41}
{"smiles": "COC(=O)c1c/c(=N\\NC(=O)CC(=O)Nc2ccccc2OC)c2ccccc2o1", "TGI": "> 100"}
{"smiles": "COC12C=C(C)C(CC1)CC2C(=O)O", "note": "(stereo not drawn)", "TGI": "> 100"}
{"smiles": "OCC(O)CC[CH2][Sn]([Br])([c]1ccccc1)[c]1ccccc1", "note": "(stereo not drawn)", "GI50": "> 100", "TGI": "> 100"}
{"smiles": "CCc1ccc(/C=C\\c2cc(OC)c(OC)c(OC)c2)cc1", "TGI": 0.0792}
{"smiles": "O=c1c2cc([N+](=O)[O-])ccc2sc2ccsc12", "TGI": "> 100"}
{"smiles": "COc1ccc(/C=C/CN(C)CCc2ccccc2)cc1OC", "TGI": "> 100"}
{"smiles": "C=C1C(=O)O[C@H]2[C@H]1CC/C(Cn1cc(-c3ccc(OC)cc3)nn1)=C\\CC[C@@]1(C)O[C@@H]21", "GI50": 1.99, "TGI": 4.45}
{"smiles": "[Cl-].[Dy+3].[O-]/N=C(\\c1ccccc1)c1ccccn1.[O-]/N=C(\\c1ccccc1)c1ccccn1.[O-]/N=C(\\c1ccccc1)c1ccccn1", "GI50": 17.3, "TGI": 58.4}
{"smiles": "CC(=O)OCCN1c2ccccc2Sc2cnccc21", "TGI": "> 10"}
{"smiles": "CC(C)(CC(=O)Nc1ccccc1)C(=O)O", "TGI": "> 100"}
{"smiles": "COc1ccc(/C(COc2c(-c3ccccc3)oc3ccccc3c2=O)=N\\O)cc1", "GI50": 20.8, "TGI": "> 50"}
{"smiles": "NC(=O)C(=O)N/N=C(\\CC1(O)C(=O)Nc2ccccc21)c1ccc2ccccc2c1", "note": "(stereo not drawn)", "TGI": "> 100"}
{"smiles": "Cc1cc2c(cc1C)[n+](=O)c(C(=O)C/C(=N/NC(=O)CC#N)C(=O)Nc1ccccc1C(F)(F)F)c(C)n2[O-]", "TGI": "> 100"}
{"smiles": "COC(=O)/C(=N/NC(=O)C[N+](C)(C)C)C(C(=O)OC)C(=O)C(=O)Nc1ccc(F)cc1", "note": "(stereo not drawn)", "TGI": "> 100"}
{"smiles": "O=C(c1ccccc1)c1nnc(C(=O)c2ccccc2)nn1", "TGI": "> 344"}
{"smiles": "Brc1cccc(C=NC23CC4CC(CC(C4)C2)C3)c1", "TGI": "> 100"}
{"smiles": "CC(C)c1nc(CN(C)C(=O)N[C@H](C(=O)N[C@@H](Cc2ccccc2)C[C@H](O)[C@H](Cc2ccccc2)NC(=O)OCc2cncs2)C(C)C)cs1", "GI50": 18.8, "TGI": 39.4}
{"smiles": "CCC[CH2][Sn]([CH2]CCC)([O]C(=O)c1cccnc1SC)[O]C(=O)c1cccnc1SC", "GI50": 0.883, "TGI": 2.18}
{"smiles": "O=C1O[C@@H](c2ccc3c(c2)OCO3)C2C(=O)O[C@@H](c3ccc4c(c3)OCO4)C12", "note": "(stereo partly drawn)", "TGI": "> 100"}
{"smiles": "O=C1CCC(=O)N2CCCCN12", "TGI": "> 100"}
{"smiles": "CC(C)C(=O)NC(=S)Nc1ccc([N+](=O)[O-])cc1C#N", "TGI": "> 100"}
{"smiles": "C/C(CC(=O)Nc1cc(Cl)c(Cl)cc1Cl)=N\\NC(N)=O", "TGI": "> 100"}
{"smiles": "N#Cc1cc([N+](=O)[O-])ccc1NC(=O)C(=O)Nc1n[nH]c(N)n1", "TGI": "> 100"}
{"smiles": "O=C(/C=C/c1c(O)ccc2ccccc12)c1cccc(O)c1", "TGI": "> 100"}
{"smiles": "COC(=O)C1Cc2c(n(Cc3ccccc3)c3ccccc23)C(CCC(=O)O)N1C(C)C", "note": "(stereo not drawn)", "TGI": "> 100"}
{"smiles": "O=C(O)CNS(=O)(=O)c1ccc(NCc2ccccc2)cc1", "TGI": "> 100"}
{"smiles": "CC(C)(C)C1C=C(Sc2ccccc2)C(=O)O1", "note": "(stereo not drawn)", "TGI": "> 100"}
{"smiles": "CCC[CH2][Sn]1([CH2]CCC)[O]Cc2nc(C)ccc2[O]1", "GI50": 14, "TGI": 27.1}
{"smiles": "O=c1/c(=C/c2ccco2)sc2nc3ccccc3n12", "GI50": "> 100", "TGI": "> 100"}
{"smiles": "O=C1CCC2(c3ccc(F)cc3)Nc3cc(Cl)ccc3N12", "note": "(stereo not drawn)", "TGI": "> 100"}
{"smiles": "C/C(CC(=O)Nc1ccc(C)cc1C)=N/N=C(N)N", "TGI": "> 100"}
